Measured values published in patent US20230220339A1, “T CELL, PREPARATION METHOD FOR SAME, AND APPLICATIONS THEREOF” (BENETHERA (BEIJING) BIOTECHNOLOGY CO., LTD., priority 2020, published 2023).

Key:
Assay type in all cases: cell-based, mouse
m-calpain = assay: Calpain activity by digestion of the calpain substrate CMAC (flow cytometry); conditions: for calpain activity (digestion rate of CMAC) after Ryr activation: 4-CMC treatment, FIG. 7
Protocol: Wherein calpain activity measurement procedure: To measure calpain activity, 10^5 T cells were incubated in 200 µL of medium containing 20 µM calpain substrate CMAC (t-BOC-Leu-Met, Thermo Fisher) in the dark at room temperature. After 5 min of incubation, the reaction was terminated with 1 % PFA (Biosharp) and the cells were immediately placed on ice. The fluorescent signal emitted from the digested substrate was measured as calpain activity by Fortessa flow cytometer through the Hoechst blue channel. In all experiments, the inhibitor JTV519 was added 30 min prior to the experiments, and activator 4-CmC and CMAC were added at the same time.

3T3 and A20 cells = assay: 4-CmC-induced Ca^2+ signal in cells with or without FoxP3 overexpression; conditions: FoxP3-transfected 3T3 and A20 cells vs non-FoxP3 overexpression group, HBSS without calcium ions, FIG. 24
Protocol: For non-adherent cells, Treg, Tconv and A20 cells were stained with […] fluo-4 AM (Thermo Fisher) for 1 h at 37° C. After washing, the cells were adhered to poly-L-lysine coated (0.1 mg/mL; Sigma-Aldrich) round glass slides mounted in the sandwich home-made chamber at room temperature. After 15 min, excess non-adherent cells were removed by washing with buffer. For adherent cells, NIH-3T3 and Renca cells grown on glass slides were stained with […] fluo-4 AM (Thermo Fisher) for 1 hour at 37° C. The measurement chamber was then placed on an Olympus IX-73 microscope equipped with a 20-fold (numerical aperture: 0.8) or 40-fold (numerical aperture: 1.2) Olympus objective. Unless otherwise stated, Ca^2+ oscillation within 20 min was recorded at intervals of 6 s. […] For the stimulation experiments, Ca^2+ oscillation within 5 min was recorded at intervals of 1 s. […] The emission signal at 468 nm to 550 nm excited by the 488 nm laser was recorded with a charge coupled device camera (ORCA-AG, Hamamatsu). […] The mean fluorescence intensity changes over time in individual cells were analyzed using ImageJ and normalized with fluorescence intensity in the first frame (Fluo-4 F / F0). The peak of Ca^2+ oscillation of the individual cells was shown, and the standard deviation of Ca^2+ fluctuation intensity was calculated as Mean ± SEM. […]

DC2.4 cells = assay: AFM single cell force spectrum, T-DC adhesion (two-cell system); conditions: Ryr2 blocked in Tconv; intensities even stronger than that of Treg, FIG. 14
Protocol: The atomic force microscope-based single cell force spectrum procedures were performed using JPK CellHesion device as described above (see “Alum interaction with dendritic cell membrane lipids is essential for its adjuvanticity” (Flach et al., Nat Med 17, 479-487, 2011) and “Strong adhesion by regulatory T cells induces dendritic cell cytoskeletal polarization and contact-dependent lethargy” (Chen et al., The Journal of experimental medicine, 2017)). Briefly, to measure T-DC adhesion in a two-cell system, DC2.4 cells were cultured on untreated glass plates. T cells were treated with 200 U/mL human IL-2 overnight. The glass plates were moved into an AFM compatible chamber and mounted on a machine table. Clean cantilevers were coated with CellTak (BD), and then stick an individual T cell on thefront end of the cantilever. The AFM cantilever carrying the individual T cell was lowered to allow T cell contact with a single DC and to interact for 15 s, and then moved upward until the two cells were completely separated. A force spectrum curve was obtained. The process was then repeated. […] Treg/Tconv contact-mediated inhibition of OT-II-DC adhesion was analyzed. […] For each SCFS experiment, a T-DC pair was used to generate force readings for each up-down cycle during a period of several minutes. […]

| Compound | calpain activity (digestion rate of CMAC) after Ryr activation (m-calpain; Tconv cells) | calpain activity (digestion rate of CMAC) after Ryr activation (m-calpain; Treg cells) | Ca^2+ signal driven by 4-CmC (3T3 and A20 cells) | digestion of m-calpain substrate after JTV519 treatment (m-calpain; Tconv, inhibitor added 30 min prior, FIG. 13) | contact of treated Tconv with dendritic cells (adhesion) (DC2.4 cells) |
| --- | --- | --- | --- | --- | --- |
| Cc1cc(O)ccc1Cl [4-CmC] | completely able to induce calpain activity | not sensitive | drives much less Ca^2+ signal | – | – |
| COc1ccc2c(c1)CN(C(=O)CCN1CCC(Cc3ccccc3)CC1)CCS2 [JTV519] | – | – | – | digestion of low m-calpain substrate | induced strong contact with dendritic cells |
